The test system of the assay is Fusarium culmorum. Briefly: Activity against root rot caused by Fusarium culmorum (Fusacu), microtiter test. To be noted: 31 ppm; Fusarium culmorum spore suspension; 18° C.; 405 nm, 7 days after inoculation. The assay is classed as cell-based.

Structures are written as SMILES.

In the case of `CC(C)CC#Cc1ccc(C(O)(Cn2cncn2)C(C)(C)C)cc1` (stereo not shown) [I.C-2], the “growth (relative growth of the pathogen vs active compound-free control = 100%)” value turned out to be 0%.
